From patent publication US20130309337A1, “PROCESS FOR THE PREPARATION OF PLANT EXTRACTS FOR TREATING SKIN DISORDERS AND ENHANCING HEALING OF WOUNDS” (DEVELOPMENT CENTER FOR BIOTECHNOLOGY, priority 2007, published 2013) come the findings set out here.

This test concerns STZ-induced diabetic rats. Put plainly: Wound closure in STZ-induced diabetic rats (full-thickness dorsal excision wounds, topical application twice a day). Format: in vivo, rat. Conditions: Example 6, Table 1. The procedure: Rats with a body weight of over 300 g were administered with Streptozotocin (STZ, 65 mg/kg, i.p.) to induce high blood sugar.
• i. The high-blood-sugar animals with a body weight of lower than 300 g were eliminated and the rest were randomized into 6 groups. • ii. The animals were anesthetized with pentobarbital and the hair on the surgical area (dorsal area) was removed. The surgical areas and instruments were then sterilized with 75% alcohol before operation. • iii. The skins on the dorsal medium areas (4, 6 and 8 cm from the midpoint of two scapula) were excised (full thickness) using a round cutting blade with a diameter of 1 cm. Measuring the Wounds, Applying Testing Materials, and Preventing the Wounds from Being Scratched • i. A standard ruler was placed beside the wounds and pictures were taken. • ii. A thin layer of the test materials formulated as ointments and 0.05 ml of CGS21680 solution were applied to each wound. • iii. The wounds were covered with gauze and hoods were worn on the rats' necks.
Test materials were applied to the rats twice a day (morning and evening) and the wounds were measured at each time point.
A standard ruler was placed beside the wounds when pictures were taken. The length of the wounds was standardized according to the scale of the standard ruler in the pictures before the wounds were analyzed with the image processing software Image-Pro (Media Cybernetics, Inc.) to avoid the errors caused by different picturing distances.
The areas of the three wounds on the rats' backs were analyzed by Image-Pro. The wound areas of day zero were the original wound areas. The original wound areas minus the wound areas at different time points were divided by the original wound areas to get the wound closure percentages. The mean of the three wound closure percentages of each rat represents the wound closure of each rat. Four to seven rats per group were used for each test materials. The data was shown as mean±standard error (SEM). The p-values of the test results were calculated by t-test in statistics software sigma statis (Systat software Inc.). P<0.05 means there is a significant difference, and it is marked with * on the statistics charts or tables. P<0.01 means there is a very significant difference, and it is marked with ** on the statistics charts or tables. P<0.001 means there is an extremely significant difference, and it is marked with *** on the statistics charts or tables.
The purpose of this example is to compare the efficacy of the composition of the present invention and that of the commercially available products on wound closures. The wound closure animal experiments were conducted according to Example 5. On day 0, 4, 6, 8, 10 and 12 after the treatments of placebo (Group 1), 1% S1 ointment (Group 2), CGS-21680 (Group 3), Regranex (Group 4), DCB-WH1-C (Group 5) and DCB-WH1-W (Group 6), the wound areas of all experimental groups were measured and the wound closure percentages and CT50 (time required for 50% wound closure) values were calculated.
The purpose of this example is to compare the efficacy of DCB-WH1-W with that of its active ingredients in wound closures. The test materials are placebo (Group 1), 1% S1 ointment (Group 2), 0.25% PA-W4 ointment (Group 3), DCB-WH1-W (Group 4) and 1% PA-W4 ointment (Group 5). The wound closure animal experiments were conducted according to Example 5. On day 0, 4, 9, 11 and 13 after the treatment with the test materials, the wound areas of all experimental groups were measured and the wound closure percentages and CT50 were calculated.

For the compound `CCNC(=O)[C@H]1O[C@@H](n2cnc3c(N)nc(NCCc4ccc(CCC(=O)O)cc4)nc32)[C@H](O)[C@@H]1O` [CGS-2168, CGS-21680], the “CT50 (time required for 50% wound closure)” value stood at 10.3 days. Further, under “day 4 after treatment, mean ± SEM, topical twice a day”, the “Wound closure percentage (%) Day 4” value is listed as −21.3 ± 4.8%. For the same compound, the “Wound closure percentage (%) Day 6” value (day 6, mean ± SEM) is reported as −27.38 ± 3.2%. Moreover, the “Wound closure percentage (%) Day 8” value (day 8, mean ± SEM) was −2.4 ± 4.1%. The “Wound closure percentage (%) Day 10” value (day 10, mean ± SEM) turned out to be 46.7 ± 6.0%. Further, for the setting “day 12, mean ± SEM”, the “Wound closure percentage (%) DAY 12” value was 71.7 ± 2.4%.
